Test results from article PMC10879502, “Linking ATP and allosteric sites to achieve superadditive binding with bivalent EGFR kinase inhibitors” (Communications Chemistry, 2024).

What was measured:
Test in all cases: KINOMEscan
Format in all cases: binding
Settings in all cases: 1 μM
ASK1 = ASK1 (Homo sapiens, UniProt Q99683)
BMPR2 = target: T1, BMPR2 (Homo sapiens, UniProt Q13873)
T1 construct: purchased Eurofins DiscoverX Corporation (KINOMEscan)

CAMK2B = target: T2, CAMK2B (Homo sapiens, UniProt Q13554)
T2 construct: purchased Eurofins DiscoverX Corporation (KINOMEscan)

CAMK4 = target: T3, CAMK4 (Homo sapiens, UniProt Q16566)
T3 construct: purchased Eurofins DiscoverX Corporation (KINOMEscan)

CDKL1 = CDKL1 (Homo sapiens, UniProt Q00532)
CDKL2 = CDKL2 (Homo sapiens, UniProt Q92772)
CLK2 = CLK2 (Homo sapiens, UniProt P49760)
CSNK2A2 = target: T4, CSNK2A2 (Homo sapiens, UniProt P19784)
T4 construct: purchased Eurofins DiscoverX Corporation

DCAMKL3 = target: T5, DCAMKL3 (Homo sapiens, UniProt Q9C098)
T5 construct: purchased Eurofins DiscoverX Corporation

EGFR = EGFR (Homo sapiens, UniProt P00533)
EPHB6 = EPHB6 (Homo sapiens, UniProt O15197)
ERK1 = ERK1 (Homo sapiens, UniProt P27361)
ERK5 = ERK5 (Homo sapiens, UniProt Q13164)
FGFR3 = FGFR3 (Homo sapiens, UniProt P22607)
FLT3(R834Q) = target: T6, FLT3(R834Q) (Homo sapiens, UniProt P36888, R834Q)
T6 construct: purchased Eurofins DiscoverX Corporation

GSK3B = target: T7, GSK3B (Homo sapiens, UniProt P49841)
T7 construct: purchased Eurofins DiscoverX Corporation

IKK-alpha = target: T8, IKK-alpha (Homo sapiens, UniProt O15111)
T8 construct: purchased Eurofins DiscoverX (KINOMEscan)

IKK-epsilon = target: T9, IKK-epsilon (Homo sapiens, UniProt Q14164)
T9 construct: purchased Eurofins DiscoverX (KINOMEscan)

LOK = target: T10, LOK (Homo sapiens, UniProt O94804)
T10 construct: purchased Eurofins DiscoverX Corporation

MEK1 = target: T11, MEK1 (Homo sapiens, UniProt Q02750)
T11 construct: purchased Eurofins DiscoverX Corporation

MKK7 = target: T12, MKK7 (Homo sapiens, UniProt O14733)
T12 construct: purchased Eurofins DiscoverX Corporation

NDR2 = target: T13, NDR2 (Homo sapiens, UniProt Q9Y2H1)
T13 construct: purchased Eurofins DiscoverX Corporation

p38-beta = p38-beta (Homo sapiens, UniProt Q15759)
p38-gamma = p38-gamma (Homo sapiens, UniProt P53778)
PDPK1 = PDPK1 (Homo sapiens, UniProt O15530)
PIK3CA(I800L) = PIK3CA(I800L) (Homo sapiens, UniProt P42336, I800L)
PIK3CD = PIK3CD (Homo sapiens, UniProt O00329)
PKAC-alpha = PKAC-alpha (Homo sapiens, UniProt P17612)
PRKR = PRKR (Homo sapiens, UniProt P19525)
RAF1 = RAF1 (Homo sapiens, UniProt P04049)
[1] = target: RPS6KA4(Kin.Dom.2-C-terminal) (Homo sapiens, UniProt O75676)
[2] = target: RSK4(Kin.Dom.2-C-terminal) (Homo sapiens, UniProt Q9UK32)
S6K1 = S6K1 (Homo sapiens, UniProt P23443)
TRKA = target: T14, TRKA (Homo sapiens, UniProt P04629)
T14 construct: purchased Eurofins DiscoverX Corporation

TTK = TTK (Homo sapiens, UniProt P33981)
[3] = target: TYK2(JH2domain-pseudokinase) (Homo sapiens, UniProt P29597)
VPS34 = VPS34 (Homo sapiens, UniProt Q8NEB9)
YES = YES (Homo sapiens, UniProt P07947)

T9 sequence (Q14164 whole entry): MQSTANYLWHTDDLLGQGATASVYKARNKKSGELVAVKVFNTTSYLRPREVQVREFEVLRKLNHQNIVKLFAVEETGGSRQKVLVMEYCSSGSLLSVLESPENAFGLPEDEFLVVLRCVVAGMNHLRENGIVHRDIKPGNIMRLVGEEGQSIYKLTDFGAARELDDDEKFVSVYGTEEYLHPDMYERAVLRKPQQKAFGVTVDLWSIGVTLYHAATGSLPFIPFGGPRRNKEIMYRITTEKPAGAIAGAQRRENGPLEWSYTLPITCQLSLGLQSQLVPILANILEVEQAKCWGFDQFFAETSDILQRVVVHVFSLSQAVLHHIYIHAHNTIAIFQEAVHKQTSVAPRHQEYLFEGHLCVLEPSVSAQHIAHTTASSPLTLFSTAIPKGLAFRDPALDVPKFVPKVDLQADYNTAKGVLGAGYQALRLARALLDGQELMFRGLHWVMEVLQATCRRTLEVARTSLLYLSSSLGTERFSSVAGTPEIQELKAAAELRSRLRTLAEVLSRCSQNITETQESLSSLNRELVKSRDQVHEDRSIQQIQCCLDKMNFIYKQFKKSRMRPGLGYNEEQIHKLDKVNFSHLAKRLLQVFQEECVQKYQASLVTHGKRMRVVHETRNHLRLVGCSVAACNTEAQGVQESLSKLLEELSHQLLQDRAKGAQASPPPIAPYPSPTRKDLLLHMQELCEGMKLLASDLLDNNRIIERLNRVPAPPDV
Sequence of PIK3CD (O00329 whole entry): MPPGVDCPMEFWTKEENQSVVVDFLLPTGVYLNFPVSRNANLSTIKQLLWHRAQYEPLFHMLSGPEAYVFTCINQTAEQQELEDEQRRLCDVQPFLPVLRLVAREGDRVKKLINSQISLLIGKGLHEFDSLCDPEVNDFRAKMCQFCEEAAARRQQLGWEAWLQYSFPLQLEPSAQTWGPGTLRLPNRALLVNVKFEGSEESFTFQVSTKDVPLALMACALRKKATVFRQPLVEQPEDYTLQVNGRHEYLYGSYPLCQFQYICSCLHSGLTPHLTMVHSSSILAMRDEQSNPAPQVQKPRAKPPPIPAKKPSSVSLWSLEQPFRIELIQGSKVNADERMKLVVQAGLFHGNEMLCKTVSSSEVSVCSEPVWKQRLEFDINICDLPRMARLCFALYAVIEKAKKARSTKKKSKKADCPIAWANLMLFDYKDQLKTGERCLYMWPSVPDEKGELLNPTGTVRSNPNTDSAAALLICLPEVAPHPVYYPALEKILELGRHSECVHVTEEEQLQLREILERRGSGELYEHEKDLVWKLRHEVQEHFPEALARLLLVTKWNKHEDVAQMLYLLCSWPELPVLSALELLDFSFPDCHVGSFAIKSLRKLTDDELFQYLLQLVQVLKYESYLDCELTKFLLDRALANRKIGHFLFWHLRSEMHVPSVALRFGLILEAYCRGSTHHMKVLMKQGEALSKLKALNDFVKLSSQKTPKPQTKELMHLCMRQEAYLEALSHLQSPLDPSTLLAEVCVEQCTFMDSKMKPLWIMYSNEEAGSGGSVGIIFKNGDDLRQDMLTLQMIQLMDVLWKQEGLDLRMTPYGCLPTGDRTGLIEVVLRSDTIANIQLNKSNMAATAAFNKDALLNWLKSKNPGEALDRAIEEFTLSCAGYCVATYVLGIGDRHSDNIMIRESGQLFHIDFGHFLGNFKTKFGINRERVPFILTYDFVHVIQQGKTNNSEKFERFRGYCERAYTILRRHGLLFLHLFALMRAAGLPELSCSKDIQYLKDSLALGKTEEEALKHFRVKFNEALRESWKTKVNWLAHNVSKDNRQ
T7 sequence (P49841 whole entry): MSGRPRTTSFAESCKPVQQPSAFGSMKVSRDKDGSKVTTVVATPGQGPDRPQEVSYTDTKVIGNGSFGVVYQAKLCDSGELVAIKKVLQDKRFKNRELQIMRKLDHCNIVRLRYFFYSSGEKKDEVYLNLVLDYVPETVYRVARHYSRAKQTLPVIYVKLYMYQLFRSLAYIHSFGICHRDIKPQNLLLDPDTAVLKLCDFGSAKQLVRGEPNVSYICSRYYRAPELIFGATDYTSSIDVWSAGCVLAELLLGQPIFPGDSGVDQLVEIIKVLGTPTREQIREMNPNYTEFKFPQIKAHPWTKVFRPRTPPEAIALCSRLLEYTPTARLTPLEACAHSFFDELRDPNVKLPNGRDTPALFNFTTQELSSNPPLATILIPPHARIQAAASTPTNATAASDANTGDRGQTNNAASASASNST
T13 sequence (Q9Y2H1 whole entry): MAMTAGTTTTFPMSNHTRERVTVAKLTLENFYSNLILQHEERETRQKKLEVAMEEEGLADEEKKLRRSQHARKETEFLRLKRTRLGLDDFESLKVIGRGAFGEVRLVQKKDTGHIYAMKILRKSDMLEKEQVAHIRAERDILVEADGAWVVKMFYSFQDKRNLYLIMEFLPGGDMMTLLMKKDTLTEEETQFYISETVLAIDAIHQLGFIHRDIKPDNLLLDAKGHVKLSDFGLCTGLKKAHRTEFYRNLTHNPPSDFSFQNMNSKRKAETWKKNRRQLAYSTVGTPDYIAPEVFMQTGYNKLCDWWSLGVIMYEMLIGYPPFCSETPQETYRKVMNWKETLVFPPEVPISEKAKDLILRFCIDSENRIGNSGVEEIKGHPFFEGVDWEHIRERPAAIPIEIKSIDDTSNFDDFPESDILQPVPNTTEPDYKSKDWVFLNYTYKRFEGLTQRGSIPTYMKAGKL
T12 sequence (O14733 whole entry): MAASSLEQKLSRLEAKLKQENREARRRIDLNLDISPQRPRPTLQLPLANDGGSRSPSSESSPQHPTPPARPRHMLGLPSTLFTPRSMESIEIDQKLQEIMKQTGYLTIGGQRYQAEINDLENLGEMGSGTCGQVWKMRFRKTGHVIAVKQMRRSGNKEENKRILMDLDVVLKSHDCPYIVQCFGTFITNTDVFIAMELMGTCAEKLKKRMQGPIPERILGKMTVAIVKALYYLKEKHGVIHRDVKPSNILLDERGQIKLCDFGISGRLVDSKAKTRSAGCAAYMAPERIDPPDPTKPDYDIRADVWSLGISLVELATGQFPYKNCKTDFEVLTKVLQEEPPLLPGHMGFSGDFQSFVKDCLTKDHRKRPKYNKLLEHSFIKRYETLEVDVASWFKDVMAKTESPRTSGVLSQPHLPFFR
Sequence of ERK1 (P27361 whole entry): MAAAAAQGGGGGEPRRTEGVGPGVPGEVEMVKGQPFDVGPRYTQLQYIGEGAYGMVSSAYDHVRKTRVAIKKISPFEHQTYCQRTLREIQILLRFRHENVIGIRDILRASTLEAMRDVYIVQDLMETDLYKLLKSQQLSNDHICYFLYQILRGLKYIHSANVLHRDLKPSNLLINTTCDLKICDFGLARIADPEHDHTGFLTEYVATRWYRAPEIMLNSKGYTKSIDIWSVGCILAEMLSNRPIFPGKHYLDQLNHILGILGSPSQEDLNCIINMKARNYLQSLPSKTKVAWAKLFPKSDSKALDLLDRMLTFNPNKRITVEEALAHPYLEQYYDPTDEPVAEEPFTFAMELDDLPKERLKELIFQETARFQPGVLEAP
Sequence of PRKR (P19525 whole entry): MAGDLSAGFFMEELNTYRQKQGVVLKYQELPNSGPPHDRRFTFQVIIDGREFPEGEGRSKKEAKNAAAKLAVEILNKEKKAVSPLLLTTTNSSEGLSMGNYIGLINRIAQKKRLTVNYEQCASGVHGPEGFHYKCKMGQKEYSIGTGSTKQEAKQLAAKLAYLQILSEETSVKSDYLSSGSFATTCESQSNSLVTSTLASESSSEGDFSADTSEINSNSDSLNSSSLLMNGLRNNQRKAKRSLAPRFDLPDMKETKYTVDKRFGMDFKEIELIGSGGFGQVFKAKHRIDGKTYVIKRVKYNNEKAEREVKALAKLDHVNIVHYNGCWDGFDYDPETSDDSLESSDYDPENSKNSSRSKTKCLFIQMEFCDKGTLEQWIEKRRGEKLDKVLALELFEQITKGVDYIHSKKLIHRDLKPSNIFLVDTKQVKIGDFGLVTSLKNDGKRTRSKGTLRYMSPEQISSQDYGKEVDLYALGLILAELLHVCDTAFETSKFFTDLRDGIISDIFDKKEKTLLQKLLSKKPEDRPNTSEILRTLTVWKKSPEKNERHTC
Sequence of PDPK1 (O15530 whole entry): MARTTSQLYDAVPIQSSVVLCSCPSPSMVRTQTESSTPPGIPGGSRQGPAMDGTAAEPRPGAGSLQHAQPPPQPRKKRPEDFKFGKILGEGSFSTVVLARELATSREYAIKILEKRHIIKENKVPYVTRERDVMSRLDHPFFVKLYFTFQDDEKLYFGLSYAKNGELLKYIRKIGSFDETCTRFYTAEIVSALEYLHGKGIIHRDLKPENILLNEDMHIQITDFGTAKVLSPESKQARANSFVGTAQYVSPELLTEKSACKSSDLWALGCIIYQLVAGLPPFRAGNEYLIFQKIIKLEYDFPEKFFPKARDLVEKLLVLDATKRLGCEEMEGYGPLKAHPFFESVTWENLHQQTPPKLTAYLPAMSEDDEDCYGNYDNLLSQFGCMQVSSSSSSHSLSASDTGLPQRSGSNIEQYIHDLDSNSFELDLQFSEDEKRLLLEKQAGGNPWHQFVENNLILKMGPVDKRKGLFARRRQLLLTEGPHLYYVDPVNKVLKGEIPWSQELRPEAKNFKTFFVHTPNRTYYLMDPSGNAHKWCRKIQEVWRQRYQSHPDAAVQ
T4 sequence (P19784 whole entry): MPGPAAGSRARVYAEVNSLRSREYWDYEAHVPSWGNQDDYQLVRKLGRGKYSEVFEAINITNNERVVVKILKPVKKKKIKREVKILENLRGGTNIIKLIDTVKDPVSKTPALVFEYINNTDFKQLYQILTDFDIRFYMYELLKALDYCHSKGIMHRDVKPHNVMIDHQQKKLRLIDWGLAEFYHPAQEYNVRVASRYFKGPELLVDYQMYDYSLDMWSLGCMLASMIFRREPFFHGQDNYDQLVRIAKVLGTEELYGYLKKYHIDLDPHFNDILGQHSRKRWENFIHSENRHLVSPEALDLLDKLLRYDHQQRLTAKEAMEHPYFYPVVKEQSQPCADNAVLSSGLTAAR

C=CC(=O)Nc1ccc(OC)c(Nc2cc(-c3[nH]c(CC)nc3-c3cccc(NC(=O)c4cccc5c4NC(=O)c4ccccc4N5)c3)ccn2)c1 [Compound 4]
POC (ASK1): 100% of control
POC (BMPR2): 88% of control
POC (CAMK2B): 72% of control
POC (CAMK4): 99% of control
POC (CDKL1): 100% of control
POC (CDKL2): 100% of control
POC (CLK2): 63% of control
POC (CSNK2A2): 58% of control
POC (DCAMKL3): 86% of control
POC (EGFR): 17% of control
POC (EPHB6): 100% of control
POC (ERK1): 99% of control
POC (ERK5): 100% of control
POC (FGFR3): 94% of control
POC (FLT3(R834Q)): 100% of control
POC (GSK3B): 100% of control
POC (IKK-alpha): 100% of control
POC (IKK-epsilon): 100% of control
POC (LOK): 49% of control
POC (MEK1): 100% of control
POC (MKK7): 31% of control
POC (NDR2): 77% of control
POC (p38-beta): 59% of control
POC (p38-gamma): 100% of control
POC (PDPK1): 84% of control
POC (PIK3CA(I800L)): 100% of control
POC (PIK3CD): 71% of control
POC (PKAC-alpha): 100% of control
POC (PRKR): 87% of control
POC (RAF1): 73% of control
POC [1]: 75% of control
POC [2]: 80% of control
POC (S6K1): 100% of control
POC (TRKA): 77% of control
POC (TTK): 72% of control
POC [3]: 100% of control
POC (VPS34): 84% of control
POC (YES): 20% of control
